# pIC50: −log10 of the molar value.
# Experiment: Antagonistic activity towards Melanocortin 1 receptor in Xenopus frog skin using competitive binding in the presence of 500 pM of alpha-melanocyte stimulating hormone
row,pIC50,Structure (SMILES)
1,5.00,"CC(C)[C@H](NC(=O)[C@@H]1CCC(=O)NCC(=O)N2CCC[C@H]2C(=O)N[C@H](Cc2ccccc2)C(=O)N[C@@H](CCCN=C(N)N)C(=O)N[C@@H](Cc2c[nH]c3ccccc23)C(=O)N1)C(=O)N[C@H](C(=O)NCC(N)=O)C(C)C [19-Benzyl-16-(3-guanidino-propyl)-13-(1H-indol-3-ylmethyl)-4,7,12,15,18,21-hexaoxo-docosahydro-3a,6,11,14,17,20-hexaaza-cyclopentacycloicosene-10-carboxylic acid {1-[1-(carbamoylmethyl-carbamoyl)-2-methyl-propylcarbamoyl]-2-methyl-propyl}-amide]"
2,6.20,CC(C)[C@H](NC(=O)[C@@H]1CCC(=O)NCC(=O)N2CCC[C@H]2C(=O)N[C@H](Cc2ccc3ccccc3c2)C(=O)N[C@@H](CCCN=C(N)N)C(=O)N[C@@H](Cc2c[nH]c3ccccc23)C(=O)N1)C(=O)N[C@H](C(=O)NCC(N)=O)C(C)C [c[Gly-Pro-D-Nal(2')-Arg-Trp-Glu]-Val-Val-Gly-NH2]
3,5.82,CC(C)[C@H](NC(=O)[C@@H]1CCC(=O)N2CCC[C@H]2C(=O)N[C@H](Cc2ccc3ccccc3c2)C(=O)N[C@@H](CCCN=C(N)N)C(=O)N[C@@H](Cc2c[nH]c3ccccc23)C(=O)N1)C(=O)N[C@H](C(=O)NCC(N)=O)C(C)C [c[Pro-D-Nal(2')-Arg-Trp-Glu]-Val-Val-Gly-NH2]
